Results reported in US9884012B2, “Use of PEDF-derived polypeptides for promoting muscle or tendon regeneration or arteriogenesis” (MacKay Memorial Hospital, priority 2012, dated 2018).
Marks after values point to notes of the source that are not given here.

Tests used:
ischemic hindlimbs = test: hindlimb ischemia model, laser Doppler perfusion imaging of limb blood perfusion; assay type: in vivo, C57BL/6 wild-type mice
Description: (§1) 6-week-old female C57BL/6 wild-type mice were anesthetized by an intraperitoneal injection of a mixture of zoletil (6 mg/kg) and xylazine (3 mg/kg). Hair was removed from the hindquarter with a depilating cream. To establish hindlimb ischemia, unilateral external iliac and femoral arteries and veins were ligated, cut, and excised. After surgery, the mice were randomly assigned to several experimental groups (n=6, each group) and treated as follows. In the blank control group, the mice were treated with 50 μl of blank alginate gel, whereas in the bolus control group, the mice received the bolus formulation containing 29-mer. In the PEDF peptide/alginate gel treatment groups, the mice received 50 μl of the sustained-release formulation, which comprised either 29-mer, 24-mer, or 20-mer. Additionally, in a PEDF 18-mer control group, mice were treated with a sustained-release formulation containing a PEDF 18-mer peptide. Treatments were applied by way of a single intramuscular injection to the gracilis muscle immediately after femoral artery and vein excision operation. The incision was closed after the wound was irrigated with sterile saline.
A laser Doppler perfusion imaging (LDPI) analyzer (Moor Instruments, USA) was used to quantify hindlimb blood perfusion before surgery (pre OP), immediately after surgery (post OP), and over time after surgery. To minimize vasoconstriction by anesthetic heat loss, animals were kept on a heating plate at 37° C. for 5 min before measurement. Representative LDPI images illustrating the blood perfusion of ischemic hindlimbs over a time period of 4 weeks were provided in FIG. 2 in which dark blue color represents low blood flow. Blood perfusion is expressed as LDPI index representing the ratio of operated (ischemic) versus non-operated (non-ischemic) limb blood flow of the same mouse, and the results were summarized in FIG. 3 and Table 1 (n 6).

tibialis anterior muscle = test: hindlimb ischemia model, tibialis anterior muscle necrosis/fibrosis and centrally nucleated fibers; assay type: in vivo, C57BL/6 wild-type mice; conditions: two weeks after surgery, sustained-release formulation (Bolus: bolus 29-mer)
Description: The gracilis, adductor magnus, soleus, and tibialis muscles were fixed in 4% paraformaldehyde, dehydrated with graded ethanol series, and paraffinized. Fixed samples were de-paraffinized in xylene and rehydrated in a graded series of ethanol. Tissues were sliced into 5-μm sections. General histology was performed using H&E dye.
To ascertain the number of centrally nucleated muscle fibers, sections were stained with H&E and then photographed as described above. At least 100 stained fibers were randomly chosen from each photo. Muscle fibers were judged centrally nucleated if one or more nuclei were not located at the periphery of the fiber. The data were expressed as a % of the total number of muscle fibers counted. Results were evaluated from 6 sections per muscle section, and 10 mice at each group.
as §1
In most hindlimb ischemia models, tissue necrosis generally occurs in the muscles below the knee. For example, tibialis anterior muscle, which is distant to the gracilis muscle where the treatment was administered, often undergoes extensive necrosis with regeneration after femoral artery excision. The intensity of Masson's trichrome blue color staining depended on the content of collagen fibers in the investigated tissue, and fibrosis is the result of necrosis. […] Results from representative samples are illustrated in FIGS. 4A and 4B.
Statistical analyses regarding injured area (necrotic area+fibrotic area) and numbers of centrally nucleated fibers were also performed at two weeks after the surgery, and the results were summarized in Table 2. The injured area is expressed as the percent of total stained area (%), and the centrally nucleated fibers is expressed as the total number of muscle fibers counted (%).

aortic ring explants [1] = test: rat aortic ring sprouting assay (ex vivo neovessel sprouting); assay type: cell-based; conditions: aortic rings cultured with PEDF peptide, in words
[2] = system: adductor magnus muscle arterioles; test: hindlimb ischemia model, arteriole density (α-SMA) in adductor magnus muscle; assay type: in vivo, C57BL/6 wild-type mice; conditions: two weeks after surgery, sustained-release formulation (Bolus: bolus 29-mer)
Description: The small artery densities (α-SMA positive cells surrounding the whole circumference of the vessel) were measured and images were taken from 10 randomly-selected areas of adductor magnus muscle (200× magnification) in each sample, and blinded quantification was performed in triplicate by manually counting within each section; values from five sections were then averaged and expressed as arteriole density per mm^2.
as §1
To investigate the arteriogenic effect of the present sustained-release formulation, adductor magnus muscles (located at the same level as femoral artery excision and in which arteriogenesis responsible for establishing collateral circulation is expected to be found) were harvested from animals in each experimental condition, two weeks after the surgery. Arterioles in muscle cross sections were identified by immunohistological staining for vascular smooth muscle cells (α-SMA; brown), and nuclei were labeled with hematoxylin; representative photographs were provided in FIG. 5. Quantitative analysis was also performed and the results were summarized in Table 3, and the data were expressed as α-SMA-positive arterioles per mm^2 in the peri-injury region.

aortic ring explants [3] = test: rat aortic ring sprouting assay (ex vivo neovessel sprouting); assay type: cell-based; conditions: day 4, 50 ng/ml PEDF peptide, 50 ng/ml VEGF-A, 20 ng/ml FGF-2, MCDB131, 1% FBS, Matrigel
Description: To further confirm the neovessel development promoted by PEDF peptides, rat aortic ring sprouting assay was performed. Thoracic aortas were removed from euthanized rats and gently stripped of peri-aortic fibroadipose tissue. Aortas were sectioned into about 2-mm length rings, which were then embedded in a growth factor-reduced Matrigel. Gels containing the aortic rings were polymerized in 12-well plates incubated at 37° C. for 30 minutes. 1 ml of MCDB131 medium supplemented with 100 units/ml penicillin and […] streptomycin, 1% FBS, and a supplemental agent (50 ng/ml VEGF-A, 20 ng/ml FGF-2, or 50 ng/ml 29-mer, 24-mer, 20-mer, Mo 29-mer, Mo 20-mer, 25-mer, or 18-mer) were added to the Matrigel-containing explants. The cultures were propagated at 37° C. in a humidified incubator for up to 4 days, with media changes every other day. Neovessel sprouting was assessed until day 4 using an inverted microscope platform (Leica) with bright-field optics; representative photographs were provided in FIG. 6. Quantification of neovessel sprouting was assessed using Image-Pro Plus 6.0 software (Dendrites program). The experiment was repeated in triplicate.

tendon stem cells (TSCs) = test: TSCs proliferation assay (BrdU labeling) in vitro; assay type: cell-based, New Zealand White rabbits; conditions: TSCs passage 4; 50 nM peptide, 5% FBS, 24 hours; BrdU pulse-labeling
Description: New Zealand White rabbits (6-8 months old, 3.0-4.0 kg) were used in this study. Achilles tendons were removed from the rabbits by cutting through their bony attachments. The tendon sheath was stripped away and the core portion of the tendons was minced into small fragments. Each 100 mg of fragment was then digested in a solution containing 3 mg/mL of type I collagenase and 4 mg/mL of dispase in 1 ml Dulbecco's Modified Eagle Medium (DMEM-high glucose) at 37° C. for 2 hours. The resultant cell suspension was centrifuged at 1,000 rpm for 15 minutes to obtain a cell pellet which was then resuspended in a growth medium consisting of DMEM supplemented with 10% heat inactivated fetal bovine serum (FBS), 100 μM 2-mercaptoethanol, and 100 U/ml penicillin and 100 μg/ml streptomycin. For passage, near-confluent cells were harvested with 0.25% trypsin and then 1×10^5 subcultured cells were further cultured in medium.
The TSCs at passage 4 were seeded at gelatin-coated slide in a 6-well plate at a density of 2×10^5 cells per well and cultured in growth medium (DMEM+10% FBS) for 24 hours before being replaced by a basal growth medium with 5% FBS only (control group) or with 5% FBS plus an additional 50 nM of PEDF-derived peptide (i.e., 29-mer, 24-mer, 20-mer, 18-mer, Mo 29-mer, or Mo 20-mer) for 24 hours. For BrdU labeling assay, BrdU (final concentration, 10 μM) was added to the culture for 4 hours. After fixing with 4% paraformaldehyde, cells were exposed to cold methanol for 2 minutes, and then treated with 1 N HCl at RT for 1 hour before performing immunofluorescence. The phenotype of passage 4 TSC was determined by immunocytochemistry of nucleostemin and type I collagen. Almost all of expanded TSCs were nucleostemin and type I collagen-double positive cells.
It has been reported that during the tendon healing process, tendon stem cells (TSCs) would proliferate and differentiate into tenocytes. To investigate whether present PEDF peptides would induce the proliferation of TSCs in vitro, tendons stem cells were isolated and cultured as described in the “Materials and Methods” section. The purity of TSCs was confirmed by a TSC marker, nucleostemin, as well as the expression of type I collagen by TSCs; together, these analyses indicated a TSC purity of near 100% (data not shown). The proliferation of TSCs was confirmed by BrdU pulse-labeling for 2 hours. Quantitative analysis of the level of BrdU-positive cells was performed as described above, and the results were summarized in Table 8.

“EQRTESIIHRALYYDLIS [18-mer, control PEDF peptide without the SLGA residues, reference compound]” was tested, and the “Ischemic/Non-ischemic Perfusion Ratio (%) 7 days” value (ischemic hindlimbs; 7 days after surgery, 50 μl sustained-release alginate gel formulation, 10 μM peptide (Bolus: bolus formulation of 29-mer), single intramuscular injection to gracilis muscle) was 23.8 ± 4.5%, the “Ischemic/Non-ischemic Perfusion Ratio (%) 14 days” value (ischemic hindlimbs; 14 days after surgery, sustained-release formulation (Bolus: bolus 29-mer), single intramuscular injection) was 30.3 ± 0.94% and the “Ischemic/Non-ischemic Perfusion Ratio (%) 21 days” value (ischemic hindlimbs; 21 days after surgery, sustained-release formulation (Bolus: bolus 29-mer), single intramuscular injection) was 46.8 ± 4.3%. For the same substance, the “Ischemic/Non-ischemic Perfusion Ratio (%) 28 days” value (ischemic hindlimbs; 28 days (four weeks) after surgery, sustained-release formulation (Bolus: bolus 29-mer), single intramuscular injection) was 52.8 ± 7.4%, the “Ischemic/Non-ischemic Perfusion Ratio (%) Pre OP” value (ischemic hindlimbs; before surgery (baseline), LDPI) was 104.5 ± 2.5% and the “Ischemic/Non-ischemic Perfusion Ratio (%) Post OP” value (ischemic hindlimbs; immediately after surgery, LDPI) was 7.5 ± 0.67%. For the same substance, the “blood perfusion as compared with blank control” value (ischemic hindlimbs; over 4 weeks after surgery, in words) was “did not exhibit improved blood perfusion”, the “Centrally nucleated fibers (%)” value (tibialis anterior muscle) was 20.5 ± 3.3% and the “Injured Area (%) (necrotic area + fibrotic area, percent of total stained area)” value (tibialis anterior muscle) was 78.5 ± 5.1%. For the same substance, the “neovessel phenotype by dual immunofluorescence (α-SMA / isolectin B4)” value (aortic ring explants [1]) was “barely detected” and the “Arteriole Density per mm^2 (α-SMA-positive arterioles)” value [2] was 4.0 ± 0.58 per mm^2.
With “FGF2: well-known angiogenic factor used as positive control, 20 ng/ml [reference compound]” the “Neovessel Sprouting Fold” value (aortic ring explants [3]) was 3.5* fold of untreated aortic ring and the “Neovessel Sprouting Fold” value (aortic ring explants [3]; listed as FGF-2) was ~3.5 fold of untreated aortic ring.
“SLGAEHRTESVIHRALYYDL [Mo 20-mer, synthetic peptide derived from mouse PEDF]” was tested, and the “Neovessel Sprouting Fold” value (aortic ring explants [3]) was 6.4* fold of untreated aortic ring and the “BrdU Labeling Index (%)” value (tendon stem cells (TSCs)) was 31.8 ± 3.1 %.
For “SLGAEHRTESVIHRALYYDLITNPDIHST [Mo 29-mer, synthetic peptide derived from mouse PEDF]”, the “Neovessel Sprouting Fold” value (aortic ring explants [3]) was 6.1* fold of untreated aortic ring and the “BrdU Labeling Index (%)” value (tendon stem cells (TSCs)) was 33.2 ± 6.6 %.
